Data as given in ChEMBL document CHEMBL5244214, “An update on small molecule strategies targeting leishmaniasis” (Eur J Med Chem, 2018).

Experiments:
Leishmania major [1] = assay: Antileishmanial activity against Leishmania major MRHO/IR/75/E promastigotes assessed as parasite growth inhibition incubated for 24 hrs by MTT assay; format: functional, organism-based
[2] = Cytotoxicity against mouse peritoneal macrophages assessed as reduction in cell viability incubated for 24 hrs by MTT assay; format: toxicity, cell-based, Peritoneal macrophage
Leishmania donovani = assay: Antileishmanial activity against Leishmania donovani promastigotes assessed as parasite growth inhibition; format: functional, organism-based
Leishmania major [3] = assay: Antileishmanial activity against Leishmania major assessed as inhibition of parasite growth; format: functional, organism-based
Leishmania aethiopica [4] = assay: Antileishmanial activity against Leishmania aethiopica axenic amastigotes assessed as parasite growth inhibition incubated for 72 hrs by resazurin staining based analysis; format: functional, organism-based
Leishmania aethiopica [5] = assay: Antileishmanial activity against Leishmania aethiopica promastigotes assessed as parasite growth inhibition incubated for 24 hrs by alamar blue staining based analysis; format: functional, organism-based
Leishmania major [6] = assay: Antileishmanial activity against Leishmania major promastigotes assessed as parasite growth inhibition at 1 uM incubated for 72 hrs by MTT assay; format: functional; settings: read-out: GI
Leishmania major [7] = assay: Antileishmanial activity against Leishmania major promastigotes assessed as parasite growth inhibition at 10 uM incubated for 72 hrs by MTT assay; format: functional; settings: read-out: GI
Leishmania major [8] = assay: Antileishmanial activity against Leishmania major promastigotes assessed as parasite growth inhibition at 0.1 uM incubated for 72 hrs by MTT assay; format: functional; settings: read-out: GI
Leishmania major [9] = assay: Antileishmanial activity against Leishmania major promastigotes assessed as parasite growth inhibition at 100 uM incubated for 72 hrs by MTT assay; format: functional; settings: read-out: GI

Q: What does the source list for `CCCNC(=O)CSc1nnc(-c2ccc([N+](=O)[O-])o2)s1`?
A: IC50 (Leishmania major [1]): 19.5 µM; IC50 at 24 h [2]: 59.7 µM

Q: Which results are given for `O=C(CSc1nnc(-c2ccc([N+](=O)[O-])o2)s1)NCc1ccccc1`?
A: IC50 (Leishmania major [1]): 46.7 µM; IC50 at 24 h [2]: 86.9 µM

Q: For `O=c1oc2ccccc2c(O)c1C(c1ccoc1)N1CCOCC1` (stereo unspecified), which IC50 (Leishmania donovani) is on record?
A: 14.7 µM

Q: With `COCCCNc1nnc(-c2ccc([N+](=O)[O-])s2)s1` as the compound, how does the IC50 (Leishmania major [3]) read?
A: 3 µM

Q: Which IC50 (Leishmania donovani) does the source give for `CN1CCN(C(c2c(O)c3ccccc3oc2=O)c2c[nH]c3ccccc23)CC1` (stereo unspecified) here?
A: 13.1 µM

Q: For `Cc1cccc2cc(C(c3c(O)c4ccccc4oc3=O)N3CCN(C)CC3)c(Cl)nc12` (stereo unspecified), which IC50 (Leishmania donovani) is on record?
A: 6.9 µM

Q: With `COc1ccc(CCNC(=O)CSc2nnc(-c3ccc([N+](=O)[O-])o3)s2)cc1OC` as the compound, how does the IC50 (Leishmania major [1]) read?
A: 19.1 µM

Q: And the IC50 at 24 h [2]?
A: 56 µM

Q: With `COc1nc(OC)nc(N(CC(=O)[C@@H](N)C(C)C)CC(=O)[C@@H](N)C(C)C)n1` as the compound, how does the IC50 (Leishmania aethiopica [4]) read?
A: 0.22 µM

Q: What about the IC50 (Leishmania aethiopica [5]) of the same compound?
A: 1.4 µM

Q: With `O=[N+]([O-])c1ccc(-c2nnc(NCCCO)s2)s1` as the compound, how does the IC50 (Leishmania major [3]) read?
A: 3 µM

Q: With `COc1ccc(NC(=O)CCC(=O)O)c([N+](=O)[O-])c1` as the compound, how does the inhibition of growth at 1 µM (Leishmania major [6]) read?
A: 45.5%

Q: And the inhibition of growth at 10 µM (Leishmania major [7])?
A: 50.4%

Q: And the inhibition of growth at 0.1 µM (Leishmania major [8])?
A: 59.3%

Q: And the inhibition of growth at 100 µM (Leishmania major [9])?
A: 56.8%

Q: For `C[C@@H]1[C@H](O)[C@@H](C)/C=C/C=C/C=C/C=C/C=C/C=C/C=C/[C@H](O[C@@H]2O[C@H](C)[C@@H](O)[C@H](N)[C@@H]2O)C[C@@H]2O[C@](O)(C[C@@H](O)C[C@@H](O)[C@H](O)CC[C@@H](O)C[C@@H](O)CC(=O)O[C@H]1C)C[C@H](O)[C@H]2C(=O)O` [AMPHOTERICIN B], which inhibition of growth at 1 µM (Leishmania major [6]) is on record?
A: 74.8%

Q: What about the inhibition of growth at 10 µM (Leishmania major [7]) of the same compound?
A: 76.3%

Q: And the inhibition of growth at 0.1 µM (Leishmania major [8])?
A: 69.8%

Q: What about the inhibition of growth at 100 µM (Leishmania major [9]) of the same compound?
A: 79.8%
